EC50 and Emax data for 15 compounds are collected here from patent publication US20240208992A1, “MACROCYCLES AS CFTR MODULATORS” (Idorsia Pharmaceuticals Ltd, priority 2021, published 2024).

The assay addresses human F508del-CFTR (Homo sapiens, UniProt P13569, DEL508-508). Briefly: F508del-CFTR cell surface expression (corrector activity), DiscoveRx ß-galactosidase complementation chemiluminescence assay in recombinant U2OS cell line.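 On all read-outs here: U2OS cells co-expressing ProLink-tagged F508del-CFTR and a membrane-anchored enzyme acceptor, where more surface CFTR restores β-galactosidase activity measured by chemiluminescence.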 Particulars: for EC50: EC50, F508del-CFTR cell surface expression, U2OS cells, 16h compound incubation, geomean values; for Emax: in relation to Emax of corrector lumacaftor (=100%), arithmetic mean values.

Chain of human F508del-CFTR (P13569 with tags, fused parts or gaps DEL508-508): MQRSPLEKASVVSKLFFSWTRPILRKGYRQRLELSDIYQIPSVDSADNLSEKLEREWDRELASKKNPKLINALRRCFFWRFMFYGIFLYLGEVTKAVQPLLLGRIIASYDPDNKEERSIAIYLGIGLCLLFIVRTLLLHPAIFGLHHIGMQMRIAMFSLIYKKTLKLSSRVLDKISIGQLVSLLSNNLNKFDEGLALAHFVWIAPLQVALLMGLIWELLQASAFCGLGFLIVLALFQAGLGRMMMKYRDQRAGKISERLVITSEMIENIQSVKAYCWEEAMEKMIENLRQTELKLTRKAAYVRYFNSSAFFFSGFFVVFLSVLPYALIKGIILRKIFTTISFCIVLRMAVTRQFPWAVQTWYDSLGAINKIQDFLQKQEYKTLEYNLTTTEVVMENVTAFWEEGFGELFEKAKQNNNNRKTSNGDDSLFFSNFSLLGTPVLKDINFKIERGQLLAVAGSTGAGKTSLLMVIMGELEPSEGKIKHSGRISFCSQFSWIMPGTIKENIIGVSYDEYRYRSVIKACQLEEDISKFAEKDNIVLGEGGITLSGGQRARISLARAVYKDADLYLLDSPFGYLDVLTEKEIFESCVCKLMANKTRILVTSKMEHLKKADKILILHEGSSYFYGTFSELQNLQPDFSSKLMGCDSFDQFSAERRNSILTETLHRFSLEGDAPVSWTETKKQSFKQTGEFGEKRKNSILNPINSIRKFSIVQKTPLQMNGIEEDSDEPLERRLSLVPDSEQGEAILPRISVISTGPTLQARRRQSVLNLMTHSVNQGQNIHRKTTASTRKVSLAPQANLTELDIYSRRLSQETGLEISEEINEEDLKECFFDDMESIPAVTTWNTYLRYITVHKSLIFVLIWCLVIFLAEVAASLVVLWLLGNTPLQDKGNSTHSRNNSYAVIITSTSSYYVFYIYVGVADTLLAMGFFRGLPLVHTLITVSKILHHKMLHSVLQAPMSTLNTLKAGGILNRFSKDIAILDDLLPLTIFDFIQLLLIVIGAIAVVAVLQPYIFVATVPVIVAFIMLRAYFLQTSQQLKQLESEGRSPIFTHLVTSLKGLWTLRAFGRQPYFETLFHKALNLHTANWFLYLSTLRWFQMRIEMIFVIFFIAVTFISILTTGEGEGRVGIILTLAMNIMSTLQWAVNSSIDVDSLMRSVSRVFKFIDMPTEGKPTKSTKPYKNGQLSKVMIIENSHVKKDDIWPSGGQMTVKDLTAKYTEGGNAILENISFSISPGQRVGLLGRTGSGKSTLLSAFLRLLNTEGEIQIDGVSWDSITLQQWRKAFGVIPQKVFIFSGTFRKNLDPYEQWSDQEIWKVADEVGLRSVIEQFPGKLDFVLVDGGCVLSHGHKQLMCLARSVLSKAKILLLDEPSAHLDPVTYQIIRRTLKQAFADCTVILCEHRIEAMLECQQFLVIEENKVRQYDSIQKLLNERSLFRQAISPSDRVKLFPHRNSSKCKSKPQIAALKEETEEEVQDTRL

For the compound `COc1cc2c(cn1)OC[C@@H](Cc1ccccc1)NC(=O)[C@H]1CCCCN1C(=O)[C@H](CC(C)C)N(C)C(=O)C[C@@H](C(=O)NCCc1nc(C3CC3)no1)NC2=O` [Example 529, (7S,11S,17aR,20R)-20-benzyl-N-(2-(3-cyclopropyl-1,2,4-oxadiazol-5-yl)ethyl)-11-isobutyl-3-methoxy-10-methyl-5,9,12,18-tetraoxo-5,6,7,8,9,10,11,12,15,16,17,17a,18,19,20,21-hexadecahydro-14H-dipyrido[2,1-f:2′,3′-p][1]oxa[4,7,10,14]tetraazacycloheptadecine-7-carboxamide], the EC50 amounted to 947 nM. Moreover, the maximal effect (Emax) (U2OS) is 206%.

Take `COc1cccc(CCNC(=O)[C@@H]2CC(=O)N(C)[C@@H](CC(C)C)C(=O)N(C)CC(=O)N[C@H](Cc3ccccc3)COc3ncc4ccccc4c3C(=O)N2)c1` [Example 530]: the EC50 was 334 nM. Besides, the maximal response (Emax) (U2OS) amounted to 353%.

Consider `COc1cccc(CCNC(=O)[C@@H]2CC(=O)N(C)[C@@H](CC(C)C)C(=O)N(C)CC(=O)N[C@H](Cc3ccccc3)COc3ccc4cc(C)oc4c3C(=O)N2)c1` [Example 531, (8R,14S,18S)-8-benzyl-14-isobutyl-N-(3-methoxyphenethyl)-2,12,15-trimethyl-10,13,16,20-tetraoxo-7,8,9,10,11,12,13,14,15,16,17,18,19,20-tetradecahydrobenzofuro[7,6-p][1]oxa[4,7,10,14]tetraazacycloheptadecine-18-carboxamide], for which the concentration for a half-maximal effect (EC50) was determined as 265 nM. Moreover, under “U2OS”, the maximal effect (Emax) was 336%.

Turning to `Cc1cc2ccc3c(c2o1)C(=O)N[C@H](C(=O)NCCc1cc(C2CC2)no1)CC(=O)N(C)[C@@H](CC(C)C)C(=O)N(C)CC(=O)N[C@H](Cc1ccccc1)CO3` [Example 532, (8R,14S,18S)-8-benzyl-N-(2-(3-cyclopropylisoxazol-5-yl)ethyl)-14-isobutyl-2,12,15-trimethyl-10,13,16,20-tetraoxo-7,8,9,10,11,12,13,14,15,16,17,18,19,20-tetradecahydrobenzofuro[7,6-p][1]oxa[4,7,10,14]tetraazacycloheptadecine-18-carboxamide], the EC50 amounted to 397 nM. Further, the maximal response (Emax) (U2OS) was 375%.

Consider `COc1cc(CCNC(=O)[C@@H]2CC(=O)N(C)[C@@H](CC(C)C)C(=O)N3CCCC[C@@H]3C(=O)N[C@H](Cc3ccccc3)COc3cc(C)nc(OC)c3C(=O)N2)on1` [Example 533, (7S,11S,17aR,20R)-20-benzyl-11-isobutyl-4-methoxy-N-(2-(3-methoxyisoxazol-5-yl)ethyl)-2,10-dimethyl-5,9,12,18-tetraoxo-5,6,7,8,9,10,11,12,15,16,17,17a,18,19,20,21-hexadecahydro-14H-dipyrido[2,1-f:3′,4′-p][1]oxa[4,7,10,14]tetraazacycloheptadecine-7-carboxamide], for which the half-maximal effective concentration (EC50) was 221 nM. In addition, for the setting “U2OS”, the Emax was 352%.

Consider `Cc1cc(CCNC(=O)[C@@H]2CC(=O)N(C)[C@@H](CC(C)C)C(=O)N3CCCC[C@@H]3C(=O)N[C@H](Cc3ccccc3)COc3cnc4cccc(F)c4c3C(=O)N2)on1` [Example 534, (9S,13S,19aR,22R)-22-benzyl-6-fluoro-13-isobutyl-12-methyl-N-(2-(3-methylisoxazol-5-yl)ethyl)-7,11,14,20-tetraoxo-7,8,9,10,11,12,13,14,17,18,19,19a,20,21,22,23-hexadecahydro-16H-pyrido[2′,1′:6,7][1]oxa[4,7,10,14]tetraazacycloheptadecino[17,16-c]quinoline-9-carboxamide], for which the concentration giving a half-maximal response (EC50) stood at 273 nM. The maximal response (Emax) (U2OS) turned out to be 394%.

Turning to `COc1cccc(CCNC(=O)[C@@H]2CC(=O)N(C)[C@@H](CC(C)C)C(=O)N3CCCC[C@@H]3C(=O)N[C@H](Cc3ccccc3)COc3cnc4cccc(F)c4c3C(=O)N2)c1` [Example 535, (9S,13S,19aR,22R)-22-benzyl-6-fluoro-13-isobutyl-N-(3-methoxyphenethyl)-12-methyl-7,11,14,20-tetraoxo-7,8,9,10,11,12,13,14,17,18,19,19a,20,21,22,23-hexadecahydro-16H-pyrido[2′,1′:6,7][1]oxa[4,7,10,14]tetraazacycloheptadecino[17,16-c]quinoline-9-carboxamide], the EC50 amounted to 407 nM. Besides, the Emax (U2OS) stood at 424%.

Turning to `COc1cccc(CCNC(=O)[C@@H]2CC(=O)N(C)[C@@H](CC(C)C)C(=O)N3CCN(c4ccccc4)C[C@@H]3C(=O)N[C@H](Cc3ccccc3)COc3ccc4nc(C)oc4c3C(=O)N2)c1` [Example 536, (8S,12S,18aR,21R)-21-benzyl-12-isobutyl-N-(3-methoxyphenethyl)-4,11-dimethyl-6,10,13,19-tetraoxo-17-phenyl-6,7,8,9,10,11,12,13,16,17,18,18a,19,20,21,22-hexadecahydro-15H-oxazolo[4′,5′:5,6]benzo[1,2-p]pyrazino[2,1-f][1]oxa[4,7,10,14]tetraazacycloheptadecine-8-carboxamide], the half-maximal effective concentration (EC50) worked out at 175 nM. Also, the Emax (U2OS) was found to be 358%.

With `COc1cccc(CCNC(=O)[C@@H]2CC(=O)N(C)[C@@H](CC(C)C)C(=O)N3CC[C@@H](C3)C(=O)N[C@H](Cc3ccccc3)COc3cnc4ccc(F)cc4c3C(=O)N2)c1` [Example 537, (73S,4R,9S,13S)-4-benzyl-16-fluoro-9-isobutyl-N-(3-methoxyphenethyl)-10-methyl-6,8,11,15-tetraoxo-2-oxa-5,10,14-triaza-1(3,4)-quinolina-7(3,1)-pyrrolidinacyclopentadecaphane-13-carboxamide], the EC50 worked out at 384 nM. Besides, the Emax (U2OS) came to 294%.

`COc1cccc(CCNC(=O)[C@@H]2CC(=O)N(C)[C@@H](CC(C)C)C(=O)N3CCN(c4ccccc4)C[C@@H]3C(=O)N[C@H](Cc3ccccc3)COc3ccnc(OC)c3C(=O)N2)c1` [Example 538, (7S,11S,20R,22aR)-20-benzyl-7-isobutyl-14-methoxy-N-(3-methoxyphenethyl)-8-methyl-6,9,13,22-tetraoxo-2-phenyl-1,3,4,6,7,8,9,10,11,12,13,19,20,21,22,22a-hexadecahydro-2H-pyrazino[2,1-f]pyrido[3,4-p][1]oxa[4,7,10,14]tetraazacycloheptadecine-11-carboxamide]: the EC50 turned out to be 80 nM. Further, where the note is “U2OS”, the Emax worked out at 340%.

Turning to `CC(C)C[C@H]1C(=O)N(C)[C@@H](CC2CCC(F)(F)CC2)C(=O)N[C@H](Cc2ccccc2)COc2cnc3ccc(F)cc3c2C(=O)N[C@H](C(=O)NCCc2noc(C3CC3)n2)CC(=O)N1C` [Example 539, (3S,7S,10R,13R)-13-benzyl-N-(2-(5-cyclopropyl-1,2,4-oxadiazol-3-yl)ethyl)-10-((4,4-difluorocyclohexyl)methyl)-20-fluoro-7-isobutyl-6,9-dimethyl-1,5,8,11-tetraoxo-1,2,3,4,5,6,7,8,9,10,11,12,13,14-tetradecahydro-[1]oxa[4,7,10,14]tetraazacycloheptadecino[17,16-c]quinoline-3-carboxamide], the EC50 stood at 95 nM and the Emax is given as 391%.

For `CC(C)C[C@H]1C(=O)N(C)[C@@H](CC2CCC(F)(F)CC2)C(=O)N[C@H](Cc2ccccc2)COc2cnc3ccc(F)cc3c2C(=O)N[C@H](C(=O)NCCc2noc(C3CC3)n2)CC(=O)N1C` [Example 540, (3S,7S,10S,13R)-13-benzyl-N-(2-(5-cyclopropyl-1,2,4-oxadiazol-3-yl)ethyl)-10-((4,4-difluorocyclohexyl)methyl)-20-fluoro-7-isobutyl-6,9-dimethyl-1,5,8,11-tetraoxo-1,2,3,4,5,6,7,8,9,10,11,12,13,14-tetradecahydro-[1]oxa[4,7,10,14]tetraazacycloheptadecino[17,16-c]quinoline-3-carboxamide], the EC50 stood at 269 nM and the Emax was 256%.

Turning to `CC(C)C[C@H]1C(=O)N2CCCC[C@@H]2C(=O)N[C@H](Cc2ccccc2)COc2ccc3ncc(F)cc3c2C(=O)N[C@H](C(=O)NCCc2noc(C3CC3)n2)CC(=O)N1C` [Example 541, (9S,13S,19aR,22R)-22-benzyl-N-(2-(5-cyclopropyl-1,2,4-oxadiazol-3-yl)ethyl)-5-fluoro-13-isobutyl-12-methyl-7,11,14,20-tetraoxo-7,8,9,10,11,12,13,14,17,18,19,19a,20,21,22,23-hexadecahydro-16H-pyrido[2′,1′:6,7][1]oxa[4,7,10,14]tetraazacycloheptadecino[16,17-f]quinoline-9-carboxamide], the concentration giving a half-maximal response (EC50) is 185 nM. In addition, the Emax (U2OS) was 357%.

For the compound `COc1nccc2c1C(=O)N[C@H](C(=O)NCCc1cc(C)no1)CC(=O)N(C)[C@@H](CC(C)C)C(=O)N1CCN(c3ccccc3)C[C@@H]1C(=O)N[C@H](Cc1ccccc1)CO2` [Example 542, (7S,11S,20R,22aR)-20-benzyl-7-isobutyl-14-methoxy-8-methyl-N-(2-(3-methylisoxazol-5-yl)ethyl)-6,9,13,22-tetraoxo-2-phenyl-1,3,4,6,7,8,9,10,11,12,13,19,20,21,22,22a-hexadecahydro-2H-pyrazino[2,1-f]pyrido[3,4-p][1]oxa[4,7,10,14]tetraazacycloheptadecine-11-carboxamide], the half-maximal effective concentration (EC50) amounted to 368 nM. The Emax (U2OS) was 334%.

Regarding `CC(C)C[C@H]1C(=O)N(C)C2(CC2)C(=O)N[C@H](Cc2ccccc2)COc2ccc3ncccc3c2C(=O)N[C@H](C(=O)NCCc2cc(C3CC3)no2)CC(=O)N1C` [Example 543, (3′S,7′S,13′R)-13′-benzyl-N-(2-(3-cyclopropylisoxazol-5-yl)ethyl)-7′-isobutyl-6′,9′-dimethyl-1′,5′,8′,11′-tetraoxo-2′,3′,4′,5′,6′,7′,8′,9′,11′,12′,13′,14′-dodecahydro-1′H-spiro[cyclopropane-1,10′-[1]oxa[4,7,10,14]tetraazacycloheptadecino[16,17-f]quinoline]-3′-carboxamide], the half-maximal effective concentration (EC50) was 785 nM. In addition, the maximal response (Emax) (U2OS) was 399%.

By EC50 is commonly meant the concentration that produces a half-maximal response. What is called Emax is the maximal effect, on the per cent scale that the assay sets.
